Experimental data taken from patent US10563263B2, “Genetic polymorphisms associated with statin response and cardiovascular diseases, methods of detection and uses thereof” (CELERA CORPORATION, priority 2010, dated 2020).

Tested on: revascularization, unstable angina requiring hospitalization, MI, all causes of death, or stroke
Test: PROVE IT-TIMI 22: SNP by treatment interaction (high-dose atorvastatin vs standard-dose pravastatin), logistic regression (synergy index), primary composite endpoint
Format: in vivo, human
Settings: atorvastatin vs pravastatin; for OR (SNP by treatment interaction, logistic regression): PROVE-IT; for OR: PROVEIT

## CC(C)c1c(C(=O)Nc2ccccc2)c(-c2ccccc2)c(-c2ccc(F)cc2)n1CC[C@@H](O)C[C@@H](O)CC(=O)O [Atorvastatin, atorvastatin]
rs992695, Imputed, allele C (A1), model DOM, NMISS 442
  OR (SNP by treatment interaction, logistic regression): 1.216
rs9866421, Genotyped, allele C (A1), model REC, NMISS 443
  OR (SNP by treatment interaction, logistic regression): 0.5895
rs9881685, Imputed, allele A (A1), model ADD, NMISS 440
  OR (SNP by treatment interaction, logistic regression): 1.041
rs9881685, Imputed, allele A (A1), model DOM, NMISS 440
  OR (SNP by treatment interaction, logistic regression): 1.041
rs9936999, Imputed, allele G (A1), model DOM, NMISS 266
  OR (SNP by treatment interaction, logistic regression): 0.7758
Marker rs2574, cohort, model rec, End-point CVD
  OR: 1.62
Marker rs7508, caseonly, model dom, End-point CHD
  OR: 1.65
Marker rs198464, cohort, model rec, End-point CHD
  OR: 1.44
Marker rs198476, caseonly, model rec, End-point CHD
  OR: 1.85
Marker rs264122, cohort, model dom, End-point CHD
  OR: 0.72
Marker rs271046, caseonly, model rec, End-point CVD
  OR: 0.68
Marker rs494111, caseonly, model rec, End-point CHD
  OR: 0.44
Marker rs498657, caseonly, model add, End-point CHD
  OR: 1.57
Marker rs619825, caseonly, model rec, End-point CHD
  OR: 0.40
Marker rs646749, caseonly, model rec, End-point CHD
  OR: 0.40
Marker rs694780, caseonly, model rec, End-point CHD
  OR: 0.40
Marker rs892162, caseonly, model rec, End-point CHD
  OR: 0.64
Marker rs974950, cohort, model dom, End-point CVD
  OR: 0.64
Marker rs996022, caseonly, model rec, End-point CHD
  OR: 0.41
Marker rs1003322, caseonly, model dom, End-point CHD
  OR: 1.41
Marker rs1009748, cohort, model add, End-point CVD
  OR: 1.43
Marker rs1136046, caseonly, model add, End-point CVD
  OR: 1.48
Marker rs1190706, cohort, model dom, End-point CVD
  OR: 0.76
Marker rs1266489, cohort, model dom, End-point CVD
  OR: 0.67
Marker rs1336400, cohort, model dom, End-point CHD
  OR: 1.46
Marker rs1344081, caseonly, model dom, End-point CVD
  OR: 1.31
Marker rs1450092, caseonly, model add, End-point CHD
  OR: 0.81
Marker rs1524962, caseonly, model add, End-point CHD
  OR: 0.80
Marker rs1566221, cohort, model add, End-point CHD
  OR: 0.68
Marker rs1727746, cohort, model dom, End-point CVD
  OR: 1.30
Marker rs1798093, cohort, model rec, End-point CHD
  OR: 2.00
Marker rs1942876, caseonly, model rec, End-point CHD
  OR: 0.41
Marker rs2011318, caseonly, model add, End-point CHD
  OR: 0.63
Marker rs2060022, caseonly, model rec, End-point CVD
  OR: 0.72
Marker rs2108425, cohort, model dom, End-point CHD
  OR: 0.77
Marker rs2110564, cohort, model dom, End-point CVD
  OR: 0.60
Marker rs2113334, caseonly, model rec, End-point CVD
  OR: 0.29
Marker rs2327412, cohort, model add, End-point CVD
  OR: 1.38
Marker rs2505039, cohort, model add, End-point CHD
  OR: 0.84
Marker rs2588350, cohort, model add, End-point CVD
  OR: 0.82
Marker rs2648694, cohort, model rec, End-point CVD
  OR: 1.72
Marker rs2655222, caseonly, model rec, End-point CHD
  OR: 0.23
Marker rs2657940, caseonly, model add, End-point CHD
  OR: 1.20
Marker rs2993156, caseonly, model dom, End-point CVD
  OR: 0.75
Marker rs3763978, cohort, model add, End-point CVD
  OR: 0.84
Marker rs4038018, caseonly, model dom, End-point CHD
  OR: 0.76
Marker rs4240808, caseonly, model rec, End-point CVD
  OR: 0.56
Marker rs4242281, caseonly, model rec, End-point CVD
  OR: 2.08
Marker rs4420312, caseonly, model dom, End-point CHD
  OR: 0.59
Marker rs4472926, caseonly, model dom, End-point CHD
  OR: 0.53
Marker rs4660234, cohort, model dom, End-point CHD
  OR: 1.45
Marker rs4787415, caseonly, model rec, End-point CHD
  OR: 0.62
Marker rs4807536, caseonly, model dom, End-point CVD
  OR: 1.53
Marker rs4836745, caseonly, model dom, End-point CVD
  OR: 0.65
Marker rs4870109, caseonly, model rec, End-point CVD
  OR: 1.97
Marker rs6427807, cohort, model dom, End-point CVD
  OR: 0.66
Marker rs6539231, caseonly, model dom, End-point CVD
  OR: 0.68
Marker rs6563805, caseonly, model add, End-point CHD
  OR: 0.53
Marker rs6585412, cohort, model dom, End-point CVD
  OR: 1.39
Marker rs6685920, cohort, model dom, End-point CVD
  OR: 1.45
Marker rs6998016, caseonly, model rec, End-point CHD
  OR: 6.19
Marker rs7018577, caseonly, model dom, End-point CHD
  OR: 1.44
Marker rs7070244, caseonly, model add, End-point CVD
  OR: 1.30
Marker rs7078016, cohort, model dom, End-point CVD
  OR: 1.41
Marker rs7222186, caseonly, model dom, End-point CHD
  OR: 0.50
Marker rs7276749, cohort, model dom, End-point CVD
  OR: 0.45
Marker rs7332076, caseonly, model rec, End-point CVD
  OR: 2.40
Marker rs7338174, caseonly, model dom, End-point CHD
  OR: 2.50
Marker rs7449527, caseonly, model dom, End-point CHD
  OR: 1.53
Marker rs7710039, caseonly, model dom, End-point CVD
  OR: 0.70
Marker rs7839562, caseonly, model dom, End-point CHD
  OR: 1.54
Marker rs7916629, caseonly, model rec, End-point CVD
  OR: 2.11
Marker rs7918692, caseonly, model dom, End-point CVD
  OR: 1.48
Marker rs7959965, caseonly, model add, End-point CVD
  OR: 0.74
Marker rs8129810, cohort, model dom, End-point CVD
  OR: 0.45
Marker rs9478241, caseonly, model rec, End-point CVD
  OR: 2.08
Marker rs9914580, caseonly, model dom, End-point CHD
  OR: 0.51
Marker rs10012485, cohort, model dom, End-point CVD
  OR: 0.54
Marker rs10497883, caseonly, model add, End-point CHD
  OR: 0.68
Marker rs10518335, caseonly, model dom, End-point CVD
  OR: 0.55
Marker rs10774580, caseonly, model dom, End-point CHD
  OR: 0.63
Marker rs10945874, cohort, model add, End-point CVD
  OR: 1.72
Marker rs11138314, cohort, model add, End-point CHD
  OR: 0.64
Marker rs11585647, caseonly, model dom, End-point CVD
  OR: 0.49
Marker rs11721179, caseonly, model dom, End-point CVD
  OR: 0.64
Marker rs11734256, cohort, model rec, End-point CVD
  OR: 0.57
Marker rs12048902, caseonly, model add, End-point CVD
  OR: 0.72
Marker rs12341095, cohort, model rec, End-point CHD
  OR: 1.63
Marker rs12646525, cohort, model dom, End-point CVD
  OR: 0.59
Marker rs12679254, caseonly, model dom, End-point CVD
  OR: 0.79
Marker rs12817873, cohort, model add, End-point CVD
  OR: 0.85
Marker rs13107334, cohort, model dom, End-point CVD
  OR: 0.53
Marker rs13126170, caseonly, model dom, End-point CVD
  OR: 0.53
